Legend:
[1] = tested on: tocopherol-mediated peroxidation (TMP); assay: Anti-TMP index; assay type: biochemical
[2] = tested on: apoE−/− mice; assay: Plasma lipids and antioxidants; assay type: in vivo; details: 1% probucol, 24 weeks
Procedure: Male C57BL/6J mice, homozygous for the disrupted apoE gene (apoE−/−) were fed standard chow (Lab-Feed, Sydney, Australia) until aged 10 weeks. […] The high fat diet (control and probucol-supplemented) was prepared, according to the specifications of the Harlan Teklad diet TD88137.
Plasma was obtained from control and probucol mice and aliquots frozen for subsequent determination of lipids. Separate aliquots were acidified with metaphosphoric acid (5%) to stabilize vitamin C prior to freezing and storage at −80° C. The remainder was pooled appropriately and used for ex vivo oxidation initiated by the peroxyl radical generator AAPH and lipoprotein separation by FPLC with UV280nm detection, as described in J Lipid Res. 1999;40:1104-1112.
Lipid-soluble antioxidants and lipids were quantified by HPLC as described in FASEB J. 1999;13:667-675. For ascorbate analysis, frozen acidified samples were thawed, diluted with DPBS to adjust the pH to 7.4 and then immediately subjected to HPLC. Plasma triglycerides were determined enzymatically (Boehringer, Mannheim, Germany).
ApoE−/− mice were fed either a control or probucol-supplemented diet for 24 weeks before aortas and plasma were analysed.

| Structure (SMILES) | Anti-TMP index [1] | decrease of plasma vitamin E vs controls [2] [fold] | increase of plasma ascorbate vs controls [2] [fold] | Plasma Ascorbate ([2]; plasma) [µM] | Plasma C18:2 ([2]; plasma) [mM] | Plasma C20:4 ([2]; plasma) [mM] | Plasma C (cholesterol) ([2]; plasma) [mM] | Plasma CE-OH ([2]; plasma) [mM] | Plasma Total coenzyme Q ([2]; plasma) [µM] | Plasma Triglycerides ([2]; plasma) [mM] | Plasma Ubiquinol-10 ([2]; plasma) [µM] | Plasma Ubiquinone-9 ([2]; plasma) [µM] | Plasma Ubiquinone-10 ([2]; plasma) [µM] | Plasma α-Tocopherol ([2]; plasma) [µM] |
| --- | --- | --- | --- | --- | --- | --- | --- | --- | --- | --- | --- | --- | --- | --- |
| CC(C)(C)c1cc(-c2cc(C(C)(C)C)c(O)c(C(C)(C)C)c2)cc(C(C)(C)C)c1O [Bisphenol, bisphenol] | 3.2 |  |  |  |  |  |  |  |  |  |  |  |  |  |
| CC(C)(Sc1cc(C(C)(C)C)c(O)c(C(C)(C)C)c1)Sc1cc(C(C)(C)C)c(O)c(C(C)(C)C)c1 [Probucol, probucol] |  | ~4 | ~1.4 | 129.2 | 1.3 ± 0.8 | 0.2 ± 0.2 | 2.6 ± 1.2 | 0.0002 | 0.4 | 0.4 ± 0.0 | 0.01 ± 0.02 | 0.3 ± 0.1 | 0.1 ± 0.1 | 10.5 ± 3.50 |

— patent US20020115728A1, “Compositions and methods for treating cardiovascular disorders” (priority 2000, published 2002)
